# Results taken from patent publication US20100150938A1, “METHODS AND COMPOSITIONS FOR REDUCING INFLAMMATION AND TREATING INFLAMMATORY DISORDERS” (UNIVERSITY OF MASSACHUSETTS, priority 2008, published 2010).
# Entries after “also recorded” stand apart in the source; their conditions may differ.
# What was measured:
# [1] = tested on: caspase-1; assay: Caspase-1 cleavage/activation in mouse macrophages (Western blot p10); format: cell-based; details: LPS-primed wild type bone marrow-derived macrophages, Aβ and reverse Aβ 10 μM
# Protocol: Bone marrow derived macrophages were generated as described (Severa, M et al. Journal of Biological Chemistry 281:26188-26195 (2006)). Human PBMCs were isolated by from whole blood of healthy volunteers by density gradient centrifugation. Lysis of red blood cells was performed using red blood cell lysis buffer (Sigma). Experiments in PBMCs and macrophages were carried out at a cell density of 2×10^6 cells/ml. All primary cells and cell lines except THP-1 cells were cultured in DMEM supplemented with L-glutamine, ciprofloxacin (Cellgro, Manassas, Va.) and 10% fetal calf serum (Hyclone, Logan, Utah). THP-1 cells were cultured in RPMI supplemented with 10% fetal calf serum (Hyclone), L-glutamine, sodium pyruvate (Cellgro), and ciprofloxacin. One day prior to stimulation, THP-1 cells were differentiated using 0.5 μM PMA for three hours, washed three times and plated for stimulation. All experiments that were performed for Western blot analysis were carried out in serum free DMEM medium. ATP stimulations were carried out at 5 mM one hour prior to harvesting supernatants.
# Cell culture supernatants were precipitated by adding an equal volume of methanol and 0.25 volumes of chloroform, vortexed and centrifuged at 20.000×g for 10 min. The upper phase was discarded and 500 μl of methanol was added to the interphase. This mixture was centrifuged at 20.000×g for 10 min and the protein pellet dried at 55° C., resuspended in Laemmli buffer and boiled at 99° C. for 5 min. Samples were separated by SDS-PAGE (15%) and transferred onto nitrocellulose membranes. As indicated, blots were incubated with rabbit polyclonal antibody to anti murine caspase-1 p10 (sc-514, Santa Cruz Biotechnology, Santa Cruz, Calif.), rabbit polyclonal anti human caspase-1 p10 (sc-515, Santa Cruz Biotechnology), rabbit polyclonal anti human cleaved IL-1β (Asp116) (Cell Signaling, Boston, Mass.) or rabbit polyclonal anti murine cathepsin B (R&D Systems, Minneapolis, Minn.).
# Cell culture supernatants were precipitated by adding an equal volume of methanol and 0.25 volumes of chloroform, vortexed and centrifuged at 20,000×g for 10 min. The upper phase was discarded and 500 μl of methanol was added to the interphase. This mixture was centrifuged at 20,000×g for 10 min and the protein pellet dried at 55° C., resuspended in Laemmli buffer and boiled at 99° C. for 5 min Samples were separated by SDS-PAGE (15%) and transferred onto nitrocellulose membranes. Blots were incubated with rabbit polyclonal antibody to anti murine caspase-1 p10 (sc-514, Santa Cruz Biotechnology, Santa Cruz, Calif.).
# [2] = tested on: CAD mouse neuronal cells; assay: Neurotoxicity assay, CAD mouse neuronal cells with or without microglia; format: cell-based
# Protocol: For assessment of microglia-induced neurotoxicity, CAD mouse neuronal cells^47 were seeded on poly-L-lysine coated glass cover slips and grown in F12/DMEM supplemented with ciprofloxacin (Cellgro, Manassas, Va.) and 10% fetal calf serum (Hyclone, Logan, Utah) for 24 h. Differentiation was induced by withdrawal of serum for 48 h Immortalized microglia from wildtype or caspase-1^−/− mice were added in serum free medium to obtain mixed neuronal/microglial cultures and immediately stimulated. 72 h after stimulation with Aβ or media, cells were fixed, stained for the neuron-specific marker TuJ-1 and microglial marker CD11b, and imaged by confocal microscopy (Leica SP2 AOBS). Caspase-1 activity in microglial cells was assessed using the caspase-1 FLICA™ kit (Immunochemistry Technologies, Bloomington, Minn.) according to the manufacturer's instructions.
# [3] = tested on: mice; assay: Stereotaxic brain microinjection, microglial recruitment (F4/80); format: in vivo, mouse; details: wild type mice, 1 μl of 1 mg/ml into striatum, 48 h
# Protocol: Injections were performed as described^27. Briefly, six week old mice (n=4 in each group) were anesthetized with ketamine (100 mg/kg i.p.; Webster) and xylazine (10 mg/kg i.p.; Webster), placed on a homoeothermic heating blanket (Harvard Apparatus) and immobilized in a stereotaxic frame (Stoelting). A linear skin incision was made under sterile conditions, and a small hole was created in the skull using a dental drill 1 mm anterior and 2 mm lateral to bregma over both hemispheres. 1 μl Aβ in sterile pyrogen-free saline (1 mg/ml) was inoculated on the left side, and the same amount of revAβ was inoculated on the right side, using separate Hamilton syringes. Mice were allowed to fully recover on a heating blanket. After 48 hours, the mice were anesthetized with ketamine/xylazine and transcardially perfused with 4% paraformaldehyde in PBS. Brains were removed, placed in 4% PFA overnight at 4° C., and then transferred to PBS and stored at 4° C. until sectioning. Coronal 60 μm sections were taken using a vibratome (Leica). […] To quantify the number of microglia recruited to sites of microinjection, serial sections from each site of injection were visualized by fluorescence microscopy (Nikon Eclipse E400) and digitally photographed. […] Fluorescence intensity of microglia immunoreactive for F4/80 at each injection site was quantified using ImageJ (NIH).
# [4] = tested on: lysosomes of microglia; assay: Lysosomal swelling and damage in microglia after Aβ phagocytosis (LAMP-1, cathepsin B, LysoTracker); format: cell-based, mouse
# Protocol: Neuronal, microglial, mixed neuronal/microglial and primary mixed glial cultures were fixed with 4% paraformaldehyde for 30 min and incubations with respective primary and secondary antibodies were performed for 2 h at room temperature in PBS containing 1% bovine serum albumin, 5% fetal calf serum and 0.05% saponin Cell nuclei were stained with Hoechst 33258 (1:1000).
# For evaluation of lysosomal damage, cells were incubated with LysoTracker green (1:2000) for 30 min and stimulated as described. Lysosomal damage was defined as loss of LysoTracker fluorescence as assessed by flow cytometry. All flow cytometry experiments were performed on an LSRII cytometer (BD Biosciences), data were acquired by DIVA software (BD Biosciences) and analyzed with FlowJo software (Tree Star Inc., Ashland, Oreg.).
substance,measurement,setting,value
Aβ 1-42 peptide,caspase-1 cleavage (p10) induced by the stimulus,[1],induced caspase-1 cleavage (p10)
same,neuronal cell death,"[2]; mixed neuronal/microglial cultures with wild type microglia, Aβ 10 μM, 72 h",widespread neuronal cell death
same,effects on neuronal cells,[2]; neuronal mono-culture,only minimal morphological and quantitative effects
same,microglia around the injection site (F4/80),[3],strong recruitment and chemotaxis of microglia
same,cells with enlarged lysosomes not staining for cathepsin B,"[4]; microglia, 4 h after Aβ stimulation",15-20%
same,"diameter of Aβ-containing lysosomes, largest observed","[4]; microglia, Aβ-FITC",up to 11 μm
same,"diameter of Aβ-containing lysosomes, mean","[4]; microglia, Aβ-FITC",4.1±0.4 μm
same,cells with extensive enlargement and swelling of Aβ-containing lysosomes,"[4]; microglia, of all cells",~15%
same,cells negative for LysoTracker fluorescence,"[4]; wild type microglia, Aβ 1, 3 and 10 μM, flow cytometry",increased dose-dependently; also recorded: induced loss of LysoTracker Green fluorescence
